Reference: patent US20250154138A1, “Small Molecule IL-17A Modulators” (BeiGene, Ltd., priority 2022, published 2025)

How the values were obtained:
[1] = biological target: human IL-17A / human IL-17RA (Homo sapiens (Human), UniProt Q16552); assay: Human IL-17A biochemical assay (HTRF, blocking of IL-17A binding to IL-17RA); conditions: 0.4 nM IL-17A, 0.3 nM IL-17RA, max compound concentration 10 uM
Summary of the method: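 HTRF competition: 0.4 nM recombinant human IL-17A pre-incubated 3 h at room temperature with compound (top 10 uM, 2.7-fold, 10 points) in HEPES pH 7.5 buffer, then 0.3 nM IL-17RA added for 1 h, then anti-6His-Tb/anti-human IgG-XL665 detection for 1 h.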

[2] = system: IL-17-induced GROα secretion from HT-29 cells; assay: GROα release assay in human colorectal adenocarcinoma epithelial cell (HT-29, ELISA); format: cell-based; conditions: Homo sapiens, HT-29, 48 h, 10 ng/mL IL-17A, highest concentration 10 μM, read-out: Cellular assay HT29 cell/CXCL1 IC50
Summary of the method: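 HT-29 cells were exposed 48 h at 37°C to IL-17A (final 10 ng/mL) preincubated 15 min with compound (4-fold dilutions, top 10 μM). Secreted GROα was quantified by ELISA against a standard curve, and IC50 obtained by four-parameter fitting.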

human IL-17A / human IL-17RA, sequence (Q16552 24-155): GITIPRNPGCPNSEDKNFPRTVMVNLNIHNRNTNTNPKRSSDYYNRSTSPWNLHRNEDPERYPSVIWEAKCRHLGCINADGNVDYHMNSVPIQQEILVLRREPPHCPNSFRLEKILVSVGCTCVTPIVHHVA

| Structure (SMILES) | IC50 [1] [nM] | IC50 [2] [nM] |
| --- | --- | --- |
| Cn1nccc1C(=O)NC(C(=O)Nc1ccc2c(c1)CC(N1C[C@@H](C(F)(F)F)NC1=O)C2)C1Cc2ccc(Cl)cc2C2(CC2)C1 (stereo partly drawn) [Example 224, N-(1-(7′-chloro-3′,4′-dihydro-2′H-spiro[cyclopropane-1,1′-naphthalen]-3′-yl)-2-oxo-2-((2-((S)-2-oxo-4-(trifluoromethyl)imidazolidin-1-yl)-2,3-dihydro-1H-inden-5-yl)amino)ethyl)-1-methyl-1H-pyrazole-5-carboxamide] | 47.8 | 85.1 |
| COCC1(N2CC(C(F)(F)F)NC2=O)Cc2ccc(NC(=O)[C@@H](NC(=O)c3nonc3C)C(C3CC3)C3CC3)cc2C1 (stereo partly drawn) [Example 225, N-((2S)-1,1-dicyclopropyl-3-((2-(methoxymethyl)-2-(2-oxo-4-(trifluoromethyl)imidazolidin-1-yl)-2,3-dihydro-1H-inden-5-yl)amino)-3-oxopropan-2-yl)-4-methyl-1,2,5-oxadiazole-3-carboxamide] | 1270 | 2320 |
| Cc1nonc1C(=O)N[C@H](C(=O)Nc1ccc2c(c1)CC(C#N)(N1CC3(CC3)CNC1=O)C2)C(C1CC1)C1CC1 (stereo partly drawn) [Example 226, N-((2S)-1-((2-cyano-2-(6-oxo-5,7-diazaspiro[2.5]octan-5-yl)-2,3-dihydro-1H-inden-5-yl)amino)-3,3-dicyclopropyl-1-oxopropan-2-yl)-4-methyl-1,2,5-oxadiazole-3-carboxamide] | 50.4 | 225 |
| Cc1nonc1C(=O)NC(C(=O)Nc1ccc2c(c1)CC(N1C[C@@H](C(F)(F)F)NC1=O)C2)C1Cc2ccc(Cl)cc2C2(CC2)C1 (stereo partly drawn) [Example 227, N-(1-(7′-chloro-3′,4′-dihydro-2′H-spiro[cyclopropane-1,1′-naphthalen]-3′-yl)-2-oxo-2-((2-((S)-2-oxo-4-(trifluoromethyl)imidazolidin-1-yl)-2,3-dihydro-1H-inden-5-yl)amino)ethyl)-4-methyl-1,2,5-oxadiazole-3-carboxamide] | 112 | 168 |
| Cc1cccc(NC(=O)C2(N3CC4(CC4)CNC3=O)Cc3ccc(NC(=O)[C@@H](NC(=O)c4nonc4C)C4CCC(F)(F)CC4)cc3C2)c1 (stereo partly drawn) [Example 229, N-((1S)-1-(4,4-difluorocyclohexyl)-2-oxo-2-((2-(6-oxo-5,7-diazaspiro[2.5]octan-5-yl)-2-(m-tolylcarbamoyl)-2,3-dihydro-1H-inden-5-yl)amino)ethyl)-4-methyl-1,2,5-oxadiazole-3-carboxamide] | 28.6 | 85.1 |
| Cc1nonc1C(=O)N[C@H](C(=O)Nc1ccc2c(c1)CC(C1CCCC1)(N1CC3(CC3)CNC1=O)C2)C(C1CC1)C1CC1 (stereo partly drawn) [Example 230, N-((2S)-1-((2-cyclopentyl-2-(6-oxo-5,7-diazaspiro[2.5]octan-5-yl)-2,3-dihydro-1H-inden-5-yl)amino)-3,3-dicyclopropyl-1-oxopropan-2-yl)-4-methyl-1,2,5-oxadiazole-3-carboxamide] | 4460 | 9470 |
| Cc1nonc1C(=O)N[C@H](C(=O)Nc1ccc2c(c1)CC(N1C[C@@H](C(C)C)NC1=O)C2)C(C1CC1)C1CC1 (stereo partly drawn) [Example 231, N-((2S)-1,1-dicyclopropyl-3-((2-((R)-4-isopropyl-2-oxoimidazolidin-1-yl)-2,3-dihydro-1H-inden-5-yl)amino)-3-oxopropan-2-yl)-4-methyl-1,2,5-oxadiazole-3-carboxamide] | 1080 | 1970 |
| Cc1nonc1C(=O)N[C@H](C(=O)Nc1ccc2c(c1)CC(C(=O)Nc1ccccc1)(N1C[C@@H](C(C)C)NC1=O)C2)C(C1CC1)C1CC1 (stereo partly drawn) [Example 234, N-((2S)-1,1-dicyclopropyl-3-((2-((R)-4-isopropyl-2-oxoimidazolidin-1-yl)-2-(phenylcarbamoyl)-2,3-dihydro-1H-inden-5-yl)amino)-3-oxopropan-2-yl)-4-methyl-1,2,5-oxadiazole-3-carboxamide] | 340 | 207 |
| CC(C)[C@@H]1CN(C2(C(=O)Nc3ccccc3)Cc3ccc(NC(=O)[C@@H](NC(=O)c4ccnn4C(C)C)C(C4CC4)C4CC4)cc3C2)C(=O)N1 (stereo partly drawn) [Example 235, N-((2S)-1,1-dicyclopropyl-3-((2-((R)-4-isopropyl-2-oxoimidazolidin-1-yl)-2-(phenylcarbamoyl)-2,3-dihydro-1H-inden-5-yl)amino)-3-oxopropan-2-yl)-1-isopropyl-1H-pyrazole-5-carboxamide] | 229 | 214 |
| Cn1nccc1C(=O)N[C@H](C(=O)Nc1ccc2c(c1)OC(CN1C[C@@H](C(F)(F)F)NC1=O)C2)C1CCCCC1 (stereo partly drawn) [Example 237, N-((1S)-1-cyclohexyl-2-oxo-2-((2-(((S)-2-oxo-4-(trifluoromethyl)imidazolidin-1-yl)methyl)-2,3-dihydrobenzofuran-6-yl)amino)ethyl)-1-methyl-1H-pyrazole-5-carboxamide] | 27.1 | 53.3 |
| Cc1nonc1C(=O)N[C@H](C(=O)Nc1ccc2c(c1)CC(C(O)C(F)(F)F)(N1C[C@@H](C(C)C)NC1=O)C2)C(C1CC1)C1CC1 (stereo partly drawn) [Example 238, N-((2S)-1,1-dicyclopropyl-3-((2-((R)-4-isopropyl-2-oxoimidazolidin-1-yl)-2-(2,2,2-trifluoro-1-hydroxyethyl)-2,3-dihydro-1H-inden-5-yl)amino)-3-oxopropan-2-yl)-4-methyl-1,2,5-oxadiazole-3-carboxamide] | 222 | 137 |
| Cc1conc1C(=O)N[C@H](C(=O)Nc1ccc2c(c1)CC(N1C[C@@H](C(F)(F)F)NC1=O)C2)C(C1CC1)C1CC1 (stereo partly drawn) [Example 239, N-((2S)-1,1-dicyclopropyl-3-oxo-3-((2-((S)-2-oxo-4-(trifluoromethyl)imidazolidin-1-yl)-2,3-dihydro-1H-inden-5-yl)amino)propan-2-yl)-4-methylisoxazole-3-carboxamide] | 977 | 3210 |
| Cn1nccc1C(=O)N[C@H](C(=O)Nc1ccc2oc(CN3C[C@@H](C(F)(F)F)NC3=O)cc2c1)C1CCCCC1 [Example 240, N-((S)-1-cyclohexyl-2-oxo-2-((2-(((S)-2-oxo-4-(trifluoromethyl)imidazolidin-1-yl)methyl)benzofuran-5-yl)amino)ethyl)-1-methyl-1H-pyrazole-5-carboxamide] | 200 | 264 |

Second part, the compound after the results:

| IC50 [1] [nM] | IC50 [2] [nM] | Structure (SMILES) |
| --- | --- | --- |
| 15.9 | 49.1 | Cc1nonc1C(=O)N[C@H](C(=O)Nc1ccc2c(c1)CC(C(=O)NCc1cccnn1)(N1CC3(CC3)CNC1=O)C2)C1CCC(F)(F)CC1 (stereo partly drawn) [Example 228, N-((1S)-1-(4,4-difluorocyclohexyl)-2-oxo-2-((2-(6-oxo-5,7-diazaspiro[2.5]octan-5-yl)-2-((pyridazin-3-ylmethyl)carbamoyl)-2,3-dihydro-1H-inden-5-yl)amino)ethyl)-4-methyl-1,2,5-oxadiazole-3-carboxamide] |
| 117 | 158 | Cc1nonc1C(=O)N[C@H](C(=O)Nc1ccc2c(c1)CC(C(=O)NC1(c3ccccc3F)CC1)(N1CC3(CC3)CNC1=O)C2)C1CCC(F)(F)CC1 (stereo partly drawn) [Example 232, N-((1S)-1-(4,4-difluorocyclohexyl)-2-((2-((1-(2-fluorophenyl)cyclopropyl)carbamoyl)-2-(6-oxo-5,7-diazaspiro[2.5]octan-5-yl)-2,3-dihydro-1H-inden-5-yl)amino)-2-oxoethyl)-4-methyl-1,2,5-oxadiazole-3-carboxamide] |
| 77.8 | 90.1 | Cc1nonc1C(=O)N[C@H](C(=O)Nc1ccc2c(c1)CC(C(=O)NC1(c3cc(F)ccc3F)CC1)(N1CC3(CC3)CNC1=O)C2)C1CCC(F)(F)CC1 (stereo partly drawn) [Example 233, N-((1S)-1-(4,4-difluorocyclohexyl)-2-((2-((1-(2,5-difluorophenyl)cyclopropyl)carbamoyl)-2-(6-oxo-5,7-diazaspiro[2.5]octan-5-yl)-2,3-dihydro-1H-inden-5-yl)amino)-2-oxoethyl)-4-methyl-1,2,5-oxadiazole-3-carboxamide] |
| 245 | 537 | Cc1nonc1C(=O)N[C@H](C(=O)Nc1ccc2c(c1)CC(C(=O)Nc1cccc(F)c1)(N1C[C@@H](C(C)C)NC1=O)C2)C(C1CC1)C1CC1 (stereo partly drawn) [Example 236, N-((2S)-1,1-dicyclopropyl-3-((2-((3-fluorophenyl)carbamoyl)-2-((R)-4-isopropyl-2-oxoimidazolidin-1-yl)-2,3-dihydro-1H-inden-5-yl)amino)-3-oxopropan-2-yl)-4-methyl-1,2,5-oxadiazole-3-carboxamide] |
| 2920 | 5800 | Cc1nonc1C(=O)N[C@H](C(=O)Nc1ccc2c(c1)CC(Cc1ccc(F)cc1)(N1C[C@@H](C(C)C)NC1=O)C2)C(C1CC1)C1CC1 (stereo partly drawn) [Example 241, N-((2S)-1,1-dicyclopropyl-3-((2-(4-fluorobenzyl)-2-((R)-4-isopropyl-2-oxoimidazolidin-1-yl)-2,3-dihydro-1H-inden-5-yl)amino)-3-oxopropan-2-yl)-4-methyl-1,2,5-oxadiazole-3-carboxamide] |
| 250 | 652 | Cc1nonc1C(=O)N[C@H](C(=O)Nc1ccc2c(c1)CC(C(=O)Nc1ccccc1)(N1C[C@@H](C(C)C)NC1=O)C2)C1CCC(F)(F)CC1 (stereo partly drawn) [Example 242, N-((1S)-1-(4,4-difluorocyclohexyl)-2-((2-((R)-4-isopropyl-2-oxoimidazolidin-1-yl)-2-(phenylcarbamoyl)-2,3-dihydro-1H-inden-5-yl)amino)-2-oxoethyl)-4-methyl-1,2,5-oxadiazole-3-carboxamide] |
